Molecules are shown by their SMILES. Several values for one entry are separate records, joined by “and”; a condition that tells them apart may be missing. Equal values may be shown once.

Sequence of TEAD2 (Q15562 whole entry): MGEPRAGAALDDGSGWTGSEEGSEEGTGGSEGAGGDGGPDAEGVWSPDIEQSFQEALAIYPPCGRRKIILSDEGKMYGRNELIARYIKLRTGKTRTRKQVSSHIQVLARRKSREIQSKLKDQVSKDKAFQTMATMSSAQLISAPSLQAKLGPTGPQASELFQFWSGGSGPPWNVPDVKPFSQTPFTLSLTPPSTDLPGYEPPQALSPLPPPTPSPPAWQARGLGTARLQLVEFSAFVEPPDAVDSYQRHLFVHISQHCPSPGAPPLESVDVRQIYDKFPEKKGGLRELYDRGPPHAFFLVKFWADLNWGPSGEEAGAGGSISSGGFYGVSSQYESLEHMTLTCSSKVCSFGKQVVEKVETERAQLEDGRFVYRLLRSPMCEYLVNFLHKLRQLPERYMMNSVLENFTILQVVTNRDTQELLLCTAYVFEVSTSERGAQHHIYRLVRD

The assay concerns the target TEAD2 (Homo sapiens (Human), UniProt Q15562). Briefly: In vitro palmitoylation (TEAD2 autopalmitoylation, streptavidin blot). The format is biochemical. Particulars: compound at 10 μM; Table 2. In outline: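 Recombinant GST- or His6-TEAD2 (500 ng) preincubated 15 min with compound, then 30 min with 1 μM alkyne palmitoyl-CoA; click-labelled with biotin-azide (1 h, RT). Streptavidin-HRP blot band intensity quantified after SDS-PAGE; inhibition of autopalmitoylation relative to DMSO control.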
The inhibition is the drop in the measured response relative to a control, in per cent. For `O=C(O)c1cncnc1Nc1ccc(Nc2ccc(C34CC5CC(CC(C5)C3)C4)cc2Cl)cc1` [Compound 85], the inhibition at 10 µM worked out at 20%.

Take `O=C(O)c1nccnc1Nc1ccc(Nc2ccc(C34CC5CC(CC(C5)C3)C4)cc2Cl)cc1` [Compound 86]: the inhibition at 10 µM is 54%.

With `CC(C)c1ccccc1-c1ccc(NC(=O)C2CN(CC(=O)O)C2)cc1` [Compound 87], the inhibition at 10 µM was determined as 4%.

Take `O=C(O)C1CCNCC1Nc1ccc(Nc2ccc(C34CC5CC(CC(C5)C3)C4)cc2Cl)cc1` (centres unmarked) [Compound 88]: the inhibition at 10 µM worked out at 12%.

`O=C(O)c1ccnc(Nc2ccc(Nc3ccc(C45CC6CC(CC(C6)C4)C5)cc3Cl)cc2)c1` [Compound 89]: the inhibition at 10 µM amounted to 90%.

Consider `O=C(O)c1cccnc1Nc1ccc(Nc2ccc(C34CC5CC(CC(C5)C3)C4)cc2Cl)nc1` [Compound 91], for which the inhibition at 10 µM worked out at 97%.

Take `O=C(O)c1cccnc1Nc1ccc(C23CC4CC(CC(C4)C2)C3)cc1Br` [Compound 92]: the inhibition at 10 µM came out at 90%.

`O=C(O)C1CNCC1Nc1ccc(Nc2ccc(C34CC5CC(CC(C5)C3)C4)cc2Cl)cc1` (centres unmarked) [Compound 93]: the inhibition at 10 µM turned out to be 72%.

For `CC(C)(C)OC(=O)NC(Cc1ccc(Nc2ccc(C34CC5CC(CC(C5)C3)C4)cc2Cl)cc1)C(=O)O` (centres unmarked) [Compound 94], the inhibition at 10 µM amounted to 91%.

Take `NC(Cc1ccc(Nc2ccc(C34CC5CC(CC(C5)C3)C4)cc2Cl)cc1)C(=O)O` (centres unmarked) [Compound 95]: the inhibition at 10 µM stood at 97%.

For the molecule `O=C(O)c1cccnc1Nc1cccc(C23CC4CC(CC(C4)C2)C3)c1` [Compound 96], the inhibition at 10 µM came out at 96%.

Consider `O=C(O)c1cccc2nc(-c3cccc(C45CC6CC(CC(C6)C4)C5)c3)[nH]c12` [Compound 97], for which the inhibition at 10 µM turned out to be 60%.

Consider `O=C(NC12CC3CC(CC(C3)C1)C2)c1ccc(Nc2ccc(Nc3ccccc3C(=O)O)cc2)cc1` [Compound 98], for which the inhibition at 10 µM turned out to be 89%.

In the case of `CN(c1ccc(Nc2ccc(C34CC5CC(CC(C5)C3)C4)cc2)cc1)c1ccccc1C(=O)O` [Compound 99], the inhibition at 10 µM is 85%.

For the molecule `O=C(O)Cn1ncc2cc(Nc3ccc(C45CC6CC(CC(C6)C4)C5)cc3Cl)ccc21` [Compound 101], the inhibition at 10 µM worked out at 62%.

Regarding `CC1(C)OC(C(=O)O)C(C(=O)Nc2ccc(Nc3ccc(C45CC6CC(CC(C6)C4)C5)cc3Cl)cc2)O1` (centres unmarked) [Compound 102], the inhibition at 10 µM was 77%.

With `O=C(O)C1CCCN1Cc1ccc(Nc2ccc(C34CC5CC(CC(C5)C3)C4)cc2Cl)cc1` (centres unmarked) [Compound 103], the inhibition at 10 µM stood at 53%.

In the case of `O=C(O)c1cccnc1Nc1ccc(Nc2cccc(C34CC5CC(CC(C5)C3)C4)c2)cc1` [Compound 104], the inhibition at 10 µM was determined as 80%.

As for `Clc1cc(C23CC4CC(CC(C4)C2)C3)ccc1Nc1ccc(Cn2ccnc2)cc1` [Compound 105], the inhibition at 10 µM came to 96%.

`O=C(O)c1cccnc1N1CCN(Cc2ccc(C34CC5CC(CC(C5)C3)C4)cc2Cl)CC1` [Compound 106]: the inhibition at 10 µM is 0%.

As to `O=C(O)c1cccnc1CN1CCN(Cc2ccc(C34CC5CC(CC(C5)C3)C4)cc2Cl)CC1` [Compound 107], the inhibition at 10 µM was determined as 14%.

Consider `O=C(O)Cn1cnc2cc(Nc3ccc(C45CC6CC(CC(C6)C4)C5)cc3Cl)ccc21` [Compound 108], for which the inhibition at 10 µM is 86%.

Consider `O=C(O)Cn1cc2cc(Nc3ccc(C45CC6CC(CC(C6)C4)C5)cc3Cl)ccc2n1` [Compound 110], for which the inhibition at 10 µM was 85%.

Consider `O=C(O)c1cccnc1Nc1cccc(Nc2cccc(C34CC5CC(CC(C5)C3)C4)c2)c1` [Compound 111], for which the inhibition at 10 µM worked out at 80%.

As for `CC(C)c1ccccc1Cc1cccc(Nc2ncccc2C(=O)O)c1` [Compound 113], the inhibition at 10 µM was 100%.

`O=C(O)c1cccnc1Nc1cccc(Nc2ccc(C34CC5CC(CC(C5)C3)C4)cc2Cl)c1` [Compound 114]: the inhibition at 10 µM amounted to 98%.

Turning to `O=C(O)c1cncc(Nc2ccc(Nc3ccc(C45CC6CC(CC(C6)C4)C5)cc3Cl)cc2)n1` [Compound 115], the inhibition at 10 µM was found to be 67%.

For `O=C(O)c1cncc(Nc2ccc(Nc3ccc(C45CC6CC(CC(C6)C4)C5)cc3Cl)cc2)c1` [Compound 116], the inhibition at 10 µM was 91%.

In the case of `O=C(O)c1cc(Nc2ccc(Nc3ccc(C45CC6CC(CC(C6)C4)C5)cc3Cl)cc2)ccn1` [Compound 117], the inhibition at 10 µM stood at 9%.

For `O=C(O)Cn1ncc2ccc(Nc3ccc(C45CC6CC(CC(C6)C4)C5)cc3Cl)cc21` [Compound 118], the inhibition at 10 µM stood at 78%.

As to `CC1(C)OC(C(=O)O)C(C(=O)Nc2cc(Nc3ccc(C45CC6CC(CC(C6)C4)C5)cc3Cl)cc(C(F)(F)F)c2)O1` (centres unmarked) [Compound 120], the inhibition at 10 µM is 79%.

Regarding `O=C(O)c1cnn(Cc2ccc(Nc3ccc(C45CC6CC(CC(C6)C4)C5)cc3Cl)cc2)c1` [Compound 121], the inhibition at 10 µM is 80%.

Regarding `O=C(O)c1cccnc1Cc1ccc(Nc2ccc(C34CC5CC(CC(C5)C3)C4)cc2Cl)cc1` [Compound 122], the inhibition at 10 µM amounted to 95%.

On to `O=C(O)C1CCCN(C(=O)c2ccc(Nc3ccc(C45CC6CC(CC(C6)C4)C5)cc3Cl)cc2)C1` (centres unmarked) [Compound 123], for which the inhibition at 10 µM was determined as 88%.

For the molecule `O=C(O)c1cccn1Cc1ccc(Nc2ccc(C34CC5CC(CC(C5)C3)C4)cc2Cl)cc1` [Compound 124], the inhibition at 10 µM was 86%.

With `O=C(O)Cn1ccc2ccc(Nc3ccc(C45CC6CC(CC(C6)C4)C5)cc3Cl)cc21` [Compound 126], the inhibition at 10 µM was determined as 86%.

As for `O=C(O)c1cn(Cc2cccc(Nc3ccc(C45CC6CC(CC(C6)C4)C5)cc3Cl)c2)cn1` [Compound 127], the inhibition at 10 µM was found to be 27%.

For `O=C(O)c1cncn1Cc1cccc(Nc2ccc(C34CC5CC(CC(C5)C3)C4)cc2Cl)c1` [Compound 128], the inhibition at 10 µM was determined as 92%.

As to `O=C(O)c1cccnc1Nc1ncn(Cc2ccc(C34CC5CC(CC(C5)C3)C4)cc2Cl)n1` [Compound 129], the inhibition at 10 µM was 41%.

`O=C(O)Cn1ccc2cc(Nc3ccc(C45CC6CC(CC(C6)C4)C5)cc3Cl)ccc21` [Compound 130]: the inhibition at 10 µM stood at 100%.

As to `O=C(O)c1cccnc1Nc1ccc2c(c1)N(Cc1ccc(C34CC5CC(CC(C5)C3)C4)cc1Cl)CC2` [Compound 131], the inhibition at 10 µM stood at 37%.

In the case of `CN(c1cccc(N(C)c2ncccc2C(=O)O)c1)c1ccc(C23CC4CC(CC(C4)C2)C3)cc1Cl` [Compound 132], the inhibition at 10 µM came out at 100%.

For the molecule `CN(c1cnn(Cc2ccc(C34CC5CC(CC(C5)C3)C4)cc2Cl)c1)c1ncccc1C(=O)O` [Compound 133], the inhibition at 10 µM was found to be 93%.

On to `O=C(O)c1cccnc1Nc1cn(Cc2ccc(C34CC5CC(CC(C5)C3)C4)cc2Cl)cn1` [Compound 134], for which the inhibition at 10 µM amounted to 0%.

`CN(c1cccc(Nc2ccc(C34CC5CC(CC(C5)C3)C4)cc2Cl)c1)c1ncccc1C(=O)O` [Compound 135]: the inhibition at 10 µM was 100%.

As for `O=C(O)c1cccnc1Oc1ccc(Nc2ccc(C34CC5CC(CC(C5)C3)C4)cc2Cl)cc1` [Compound 136], the inhibition at 10 µM worked out at 99%.

For `O=C(O)c1cccnc1CN1CCC(Nc2ccc(C34CC5CC(CC(C5)C3)C4)cc2Cl)C1` (centres unmarked) [Compound 137], the inhibition at 10 µM is 99%.

`CN(c1ccc(Nc2ccc(C34CC5CC(CC(C5)C3)C4)cc2)cc1)c1ncccc1C(=O)O` [Compound 138]: the inhibition at 10 µM turned out to be 24%.

`CN(c1ccc(C23CC4CC(CC(C4)C2)C3)cc1)c1cccc(N(C)c2ncccc2C(=O)O)c1` [Compound 140]: the inhibition at 10 µM was 99%.

Consider `O=C(O)c1cccnc1CN1CCCC(Nc2ccc(C34CC5CC(CC(C5)C3)C4)cc2Cl)C1` (centres unmarked) [Compound 141], for which the inhibition at 10 µM amounted to 95%.

On to `CN(c1ccc(Nc2ncccc2C(=O)O)cc1)c1ccc(C23CC4CC(CC(C4)C2)C3)cc1Cl` [Compound 142], for which the inhibition at 10 µM turned out to be 65%.

Take `O=C(O)C1CCCN(Cc2ccc(Nc3ccc(C45CC6CC(CC(C6)C4)C5)cc3Cl)cc2)C1` (centres unmarked) [Compound 143]: the inhibition at 10 µM came out at 22%.

Consider `CN(c1cnc(Nc2ccc(C34CC5CC(CC(C5)C3)C4)cc2Cl)cn1)c1ccccc1C(=O)O` [Compound 144], for which the inhibition at 10 µM came out at 100%.

For `O=C(Nc1ccc(C23CC4CC(CC(C4)C2)C3)cc1)c1ccc(Nc2ncccc2C(=O)O)cc1` [Compound 145], the “% of inhibition of TEAD2 palmitoylation at 10 μM” value (“% of inhibition … at 10 μM” below) was 61% and 84%.

On to `CN(c1ccc(C(=O)Nc2ccc(C34CC5CC(CC(C5)C3)C4)cc2)cc1)c1ncccc1C(=O)O` [Compound 147], for which the inhibition at 10 µM is 70%.

On to `O=C(Nc1ccc(C23CC4CC(CC(C4)C2)C3)cc1)c1ccc(Nc2cccc(C(=O)O)n2)cc1` [Compound 148], for which the “% of inhibition … at 10 μM” value was found to be 69% and the inhibition at 10 µM was found to be 56%.

For the molecule `CN(C(=O)c1ccc(N(C)c2ccccc2C(=O)O)cc1)c1ccc(C23CC4CC(CC(C4)C2)C3)cc1` [Compound 149], the inhibition at 10 µM was 40%.

As for `O=C(O)c1cccc(Nc2cccc(Nc3ccc(C45CC6CC(CC(C6)C4)C5)cc3Cl)c2)n1` [Compound 150], the inhibition at 10 µM turned out to be 100%.

In the case of `O=C(O)c1cncc(Nc2cc(C(F)(F)F)cc3[nH]c4ccc(C56CC7CC(CC(C7)C5)C6)cc4c23)c1` [Compound 151], the inhibition at 10 µM was 101%.

In the case of `CN(c1ccc(C23CC4CC(CC(C4)C2)C3)cc1)c1cc(N(C)c2ncccc2C(=O)O)cc(C(F)(F)F)c1` [Compound 152], the inhibition at 10 µM was found to be 102%.

For `O=C(O)c1cncc(Nc2cc(Nc3ccc(C45CC6CC(CC(C6)C4)C5)cc3Cl)cc(C(F)(F)F)c2)c1` [Compound 153], the inhibition at 10 µM was 100%.

On to `O=C(O)c1cccc(Nc2cc(C(F)(F)F)cc3[nH]c4ccc(C56CC7CC(CC(C7)C5)C6)cc4c23)n1` [Compound 154], for which the “% of inhibition … at 10 μM” value was found to be 43% and the inhibition at 10 µM was determined as 58%.

On to `CN(c1ccc(Oc2ccc(C34CC5CC(CC(C5)C3)C4)cc2)cc1)c1ccccc1C(=O)O` [Compound 155], for which the inhibition at 10 µM came to 99%.
